“Also recorded” adds a separate entry of the source. Where two headings read alike, the source gives them in different places.
Experiments:
[1] = target: T1, capsaicin receptor (pig DRG membranes) (Sus scrofa, UniProt F1RLJ0); test: biochemical; format: binding; conditions: for inhibition of [^3H]RTX binding: 30 uM; for inhibition of specific [^3H]RTX binding: Table 1, 200 nM or 2 μM; for inhibition of / competition for [^3H]RTX binding (words): biologically effective concentrations, Table 1, 10 μM, 10 µM
T1 construct: tissue Mt; Airy Locker Co., Mt; Airy, MD; host or cells: pig dorsal root ganglia
Procedure: (§1) Membrane preparations are obtained from the DRG and Gasser ganglia of female Sprague-Dawley rats (250-300 g); animals are sacrificed by decapitation under ether anesthesia, the ganglia removed and collected into ice-cold disrupting buffer (5 mM KCl, 5.8 mM NaCl, 2 mM MgCl2, 12 mM glucose, 137 mM sucrose, 10 mM HEPES, 5 mM DTT, 2 mM EGTA, pH 7.4). After homogenization with the aid of a Polytron tissue homogenizer, samples are filtered over surgical gauze and then washed twice with the same buffer and stored at -70° C. Particulate fractions are obtained from other rat neural tissues (cerebellum, spinal cord, preoptic region, striatum, substantia nigra) and from DRG of pigs (Mt. Airy Locker Co., Mt. Airy, MD), sheep, cows (kindly provided by Dr. Solomon, USDA, Beltsville, MD), and chickens (Truslow Farms, Chesterton, MD) by a similar procedure.
Subcellular fractions are prepared by a modification of the method of Bastiaensen et al. (Bastiaensen, E., Miserez, B. and De Potter, W., Subcellular fractionation of bovine ganglion stellatum: co-storage of noradrenaline, Met-enkephalin and neuropeptide Y in large `dense-cored` vesicles, Brain Res., 442 (1988) 124-130. ) Briefly: DRG are dissected free from capsule, cut into small pieces with scissors, and then homogenized with a teflon pestle (20 strokes) in ice-cold 0.25 M sucrose/ 20 mM Tris-Cl (pH 7.4) buffer. The homogenate is filtered over surgical gauze; it is then centrifuged for 10 min at 2000 gmax, giving a pellet P1, and again at 10 000 gmax for 15 min giving a pellet P2. The P1 and P2 pellets are saved as nuclear and mitochondrial fractions for binding studies. The resulting supernatant is further centrifuged at 50 000 gmax for 60 min, and then the pellet is harvested as the plasma-membrane enriched microsomal fraction.
(§2) The binding assays are carried out in a volume of 250 ul, containing assay buffer (same as the disrupting buffer but omitting DTT and EGTA and including 0.75 mM CaCl2), 26-30 ug of membrane protein and 0.25 mg/ml bovine serum albumin. […] Tubes are kept on ice while the additions are made. The assay mixture is incubated for 10 min at 37° C.; it is then cooled on ice. 150 ul of the mixture is pipetted onto Whatman GF/C or GF/F glass fiber filters presoaked with 10 mg/ml bovine serum albumin in 20 mM Tris-Cl (pH 7.4) and filtered immediately. An aliquot of 50 ul of the mixture is removed to determine total radioactivity. The filters are washed with 100 ml of ice-cold 20 mM Tris-Cl, pH 7 4, containing 0.1 mg/ml bovine serum albumin, and the bound radioactivity is determined by scintillation counting. Non-specific binding is determined in the presence of 100-1000 nM non-radioactive RTX.
(§3) Binding data from saturation experiments using increasing concentrations of hot ligand are analyzed using the collection of computer programs described by McPherson (McPherson, G.A., Analysis of radioligand binding experiments: a collection of computer programs for the IBM PC, J.Pharmacol.Methods, 14 (1985) 213-228).
(§4) Scatchard and Hill transformations are performed by the Equilibrium Binding Data Analysis program referred to as EBDA. Data are further analyzed by the curvilinear regression program LIGAND (Munson, R.J. and Rodbard, D., LIGAND: a versatile computerized approach for characterization of ligand-binding systems, Anal.Biochem, 107 (1980) 220-239).
RTX binding is also analyzed in the presence of a fixed, low (60 pM or 300 pM) concentration of [^3 H]RTX and increasing concentrations of non-radioactive RTX or other ligand.

[2] = target: T2, capsaicin receptor (rat Gasser ganglia) (Rattus norvegicus, UniProt O35433); test: biochemical; format: binding; conditions: for activity at 30 µM: read-out: % of specific [^3H]RTX binding measured in the absence of the tested compound ± SEM
T2 construct: from tissue; host or cells: Gasser ganglia of female Sprague-Dawley rats
Procedure: as §1, §2, §3, §4
(§5) RTX binding is also analyzed in the presence of a fixed, low (60 pM or 300 pM) concentration of [^3 H]RTX and increasing concentrations of non-radioactive RTX or other ligand. […] The Ki value for RTX is calculated from the relationship Ki =ID50 -L; the Ki values for other ligands are calculated from the general form of the equation (Cheng, Y.C. and Prusoff, W.H., Relation between the inhibition constant (Ki) and the concentration of inhibitor which causes 50 per cent inhibition (I50) of an enzymatic reaction, Biochem. Pharmacol., 22 (1973) 3099-3108) Ki =IC50 /(1+L/Kd) where L=concentration of labelled ligand and Kd =dissociation constant of radioactive ligand as determined in the saturation experiments using variable concentrations of hot ligand. Comparison of the quality of fit using single and multiple site competition models is performed by the LIGAND program.
Gasser ganglia represents the […] homolog of the dorsal root ganglia.

[3] = target: T3, capsaicin receptor (rat DRG membranes) (Rattus norvegicus, UniProt O35433); test: biochemical; format: binding; conditions: for activity at 0.2 µM: 10 min, read-out: % of specific [^3H]RTX binding measured in the absence of the tested compound ± SEM
T3 construct: membrane preparations from dorsal root ganglia (DRG) of female Sprague-Dawley rats; from tissue; host or cells: dorsal root ganglia of female Sprague-Dawley rats
Procedure: as §1, §2, §3, §4, §5
[^3 H]RTX binding is examined using membrane preparations from dorsal root ganglia (DRG) of female Sprague-Dawley rats.

[4] = RTX versus capsaicin; cited from earlier work
[5] = tested on: protein kinase C; test: [^3H]phorbol 12,13-dibutyrate binding, rat DRG membranes
Source text: The side chain at C20 is essential for the capsaicin-like 25 activity of RTX (Szallasi, A., Sharkey, N.A. and Blumberg, P.M., Structure-activity analysis of resiniferatoxin analogs, Phytotherapy Res., 6: 253-257, 1990).

[6] = RTX versus capsaicin, cited from earlier work
[7] = tested on: rats; conditions: 300 ug/kg RTX s.c.; cited from earlier work
[8] = target: protein kinase C; test: [^3H]PDBu binding, pig DRG membranes; conditions: read-out: Kd for [^3H]PDBu binding to membrane preparations
[9] = tested on: mitochondrial NADH-Coenzyme Q oxidoreductase; conditions: high capsaicin concentrations; cited from earlier work
[10] = tested on: capsaicin desensitization of sensory fibers; conditions: cited from earlier work
[11] = 10 min, pig DRG, 30 μM, read-out: % of specific [^3H]RTX binding measured in the absence of the tested compound ± SEM

T2 sequence (O35433 whole entry): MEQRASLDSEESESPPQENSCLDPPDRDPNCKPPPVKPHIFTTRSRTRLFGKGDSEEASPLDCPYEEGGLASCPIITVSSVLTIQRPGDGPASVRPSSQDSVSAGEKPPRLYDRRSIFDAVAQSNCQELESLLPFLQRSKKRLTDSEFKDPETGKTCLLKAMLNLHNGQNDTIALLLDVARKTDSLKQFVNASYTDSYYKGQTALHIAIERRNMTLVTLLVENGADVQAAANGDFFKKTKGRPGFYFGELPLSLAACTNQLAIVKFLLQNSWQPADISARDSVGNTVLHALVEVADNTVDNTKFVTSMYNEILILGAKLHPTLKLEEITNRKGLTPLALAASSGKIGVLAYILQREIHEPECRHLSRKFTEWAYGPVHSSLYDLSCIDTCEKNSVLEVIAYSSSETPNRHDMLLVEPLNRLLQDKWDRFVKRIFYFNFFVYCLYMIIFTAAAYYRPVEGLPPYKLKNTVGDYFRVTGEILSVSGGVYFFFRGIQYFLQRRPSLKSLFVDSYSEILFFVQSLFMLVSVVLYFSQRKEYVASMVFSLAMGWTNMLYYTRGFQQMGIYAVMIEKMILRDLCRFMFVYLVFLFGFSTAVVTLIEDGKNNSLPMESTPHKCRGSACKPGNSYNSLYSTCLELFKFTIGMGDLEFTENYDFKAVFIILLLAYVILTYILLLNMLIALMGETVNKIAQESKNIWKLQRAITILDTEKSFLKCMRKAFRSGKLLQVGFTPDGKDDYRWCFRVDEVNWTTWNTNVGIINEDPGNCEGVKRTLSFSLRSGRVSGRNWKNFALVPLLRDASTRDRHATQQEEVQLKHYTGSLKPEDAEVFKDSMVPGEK
T3 sequence (O35433 whole entry): as above
T1 sequence (F1RLJ0 1-841): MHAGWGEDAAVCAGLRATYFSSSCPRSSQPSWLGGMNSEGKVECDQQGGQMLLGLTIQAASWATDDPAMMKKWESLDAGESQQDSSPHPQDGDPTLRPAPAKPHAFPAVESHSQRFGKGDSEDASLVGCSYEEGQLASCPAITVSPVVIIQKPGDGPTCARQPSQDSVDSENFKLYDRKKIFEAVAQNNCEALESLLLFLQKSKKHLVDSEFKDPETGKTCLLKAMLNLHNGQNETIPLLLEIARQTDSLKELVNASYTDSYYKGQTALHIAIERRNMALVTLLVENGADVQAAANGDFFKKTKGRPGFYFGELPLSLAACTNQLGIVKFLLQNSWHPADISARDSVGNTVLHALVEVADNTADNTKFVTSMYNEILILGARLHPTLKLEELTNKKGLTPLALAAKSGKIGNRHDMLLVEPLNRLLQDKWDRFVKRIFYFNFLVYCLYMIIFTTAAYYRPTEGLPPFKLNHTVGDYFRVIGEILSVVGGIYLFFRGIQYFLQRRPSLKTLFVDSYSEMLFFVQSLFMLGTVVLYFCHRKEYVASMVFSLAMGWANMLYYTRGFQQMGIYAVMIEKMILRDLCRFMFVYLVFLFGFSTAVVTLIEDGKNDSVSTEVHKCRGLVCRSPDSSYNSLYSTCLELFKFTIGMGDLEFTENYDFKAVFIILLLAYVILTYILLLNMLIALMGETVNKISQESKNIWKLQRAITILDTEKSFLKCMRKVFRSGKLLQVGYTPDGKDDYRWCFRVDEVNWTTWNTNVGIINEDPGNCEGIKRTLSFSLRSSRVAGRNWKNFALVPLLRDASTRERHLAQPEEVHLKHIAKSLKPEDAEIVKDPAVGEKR

N[C@@H](Cc1ccc(O)c(O)c1)C(=O)O [L-DOPA]
competition for [^3H]RTX binding sites ([1]; pig DRG, 100 uM): does not compete

COc1cc(CCC(C)=O)ccc1O [zingerone]
activity at 30 µM [1, 11]: 92 ± 7% | inhibition of [^3H]RTX binding ([1]; pig DRG): does not inhibit or does so more weakly | activity at 30 µM ([2]; rat Gasser ggl, 30 μM): 111%

NC[C@H](O)c1ccc(O)c(O)c1 [norepinephrine]
competition for [^3H]RTX binding sites ([1]; pig DRG, 100 uM): does not compete

COc1cc(CNC(=O)CCCCCCC(C)C)ccc1O [dihydrocapsaicin]
inhibition of [^3H]RTX binding ([1]; pig DRG): inhibits to a similar degree as does capsaicin | % of specific [^3H]RTX binding measured in the absence of the tested compound ± SEM ([1]; pig DRG, 30 μM, 10 min): 33 ± 5% | % of specific [^3H]RTX binding measured in the absence of the tested compound ± SEM ([2]; rat Gasser ggl, 30 μM): 22%

C=C(C)[C@]12C[C@@H](C)[C@@]34O[C@](Cc5ccccc5)(O[C@@H]1[C@@H]3C=C(CO)C[C@]1(O)C(=O)C(C)=C[C@@H]41)O2 [ROA, resiniferonol 9,13,14-orthophenylacetate]
activity at 2 µM ([1]; 10 min, pig DRG, 2 μM, read-out: % of specific [^3H]RTX binding measured in the absence of the tested compound ± SEM): 105 ± 6% | inhibition of specific [^3H]RTX binding [1]: inhibited neither | activity at 0.2 µM ([3]; rat DRG, 200 nM): 106%

NCCc1ccc(O)c(O)c1 [dopamine]
competition for [^3H]RTX binding sites [1]: does not compete

C=C(C)[C@]12C[C@@H](C)[C@@]34O[C@](Cc5ccccc5)(O[C@@H]1[C@@H]3C=C(COC(=O)Cc1ccc(O)c(OC)c1)C[C@]1(O)C(=O)C(C)=C[C@@H]41)O2 [RTX, resiniferatoxin]
potency for induction of pain relative to capsaicin [4]: comparable in potency | loss of specific [^3H]RTX binding after addition of excess non-radioactive RTX ([1]; pig DRG membranes, by 10 min at 37° C.): complete loss of specific binding | Ki ([1]; pig DRG, mean±SEM, 4 determinations, read-out: Ki, inhibition of [^3H]RTX binding): 2.4 ± 0.3 nM | Ki ([1]; pig DRG, one site model, read-out: Ki (LIGAND analysis)): 2.2 nM | inhibition of specific [^3H]phorbol 12,13-dibutyrate binding to protein kinase C ([5]; rat DRG preparations): only at uM concentrations | fold more potent than capsaicin / difference in potencies for induction of hypothermia or neurogenic inflammation [6]: 10^3 -10^4 fold | fold more potent than capsaicin / difference in potencies for induction of hypothermia or neurogenic inflammation ([6]; listed as resiniferatoxin): up to 10^4 fold | Ki ([3]; rat DRG, 60 pM [^3H]RTX, 30 pM to 3 nM non-radioactive RTX, mean±SEM, 3 determinations, read-out: Ki, competition of [^3H]RTX binding): 0.11 ± 0.04 nM | time to expression of desensitization [7]: 1 to 4 h

[^3 H]phorbol 12,13-dibutyrate [[^3 H]PDBu]
Kd [8]: 11.5 nM | Kd ([5]; rat DRG, read-out: Kd for [^3H]PDBu binding to membrane preparations): 8.5 nM

COc1cc(CNC(=O)CCCC/C=C/C(C)C)ccc1O [capsaicin]
inhibition of NADH-Coenzyme Q oxidoreductase [9]: inhibited at high capsaicin concentrations | Ki [1]: 14000 ± 2000 nM | % of specific [^3H]RTX binding measured in the absence of the tested compound ± SEM ([1]; pig DRG, 30 μM, 10 min): 28 ± 4% | % of specific [^3H]RTX binding measured in the absence of the tested compound ± SEM ([2]; gasser ganglia membranes, 30 µM): 30 ± 11

O=C(/C=C/C=C/c1ccc2c(c1)OCO2)N1CCCCC1 [piperine]
activity at 30 µM [1, 11]: 109 ± 2% | inhibition of [^3H]RTX binding ([1]; pig DRG): does not inhibit or does so more weakly | activity at 30 µM ([2]; rat Gasser ggl, 30 μM): 118%

CCCC(=O)O[C@@H]1[C@@H](C)[C@@]2(O)[C@@H](C=C(CO)C[C@]3(O)C(=O)C(C)=C[C@@H]23)[C@@H]2C(C)(C)[C@]12OC(=O)CCC [PDBu, phorbol 12,13-dibutyrate]
activity at 0.2 µM ([1]; 10 min, read-out: % of specific [^3H]RTX binding measured in the absence of the tested compound ± SEM): 100 ± 2% | inhibition of specific [^3H]RTX binding [1]: inhibited neither | activity at 0.2 µM [3]: 106 ± 9%

CNC[C@H](O)c1ccc(O)c(O)c1 [epinephrine]
competition for [^3H]RTX binding sites [1]: does not compete

N.N.N.N.N.N.N.N.N.N.N.N.N.N.[Cl-].[Cl-].[Cl-].[Cl-].[Cl-].[Cl-].[O-2].[O-2].[Ru+3].[Ru+3].[Ru+4] [ruthenium red]
inhibition of / competition for [^3H]RTX binding (words) [1]: fails to compete | inhibition of / competition for [^3H]RTX binding (words) ([1]; listed as Ruthenium red): fails to inhibit | % of specific [^3H]RTX binding measured in the absence of the tested compound ± SEM ([1]; pig DRG (by column position), 10 μM, n = 2): 109% | effect on (capsaicin) desensitization [10]: block capsaicin desensitization; also recorded: blocks the desensitization

From US5232684A, “Labelled resiniferatoxin, compositions thereof, and methods for using the same” (priority 1990, dated 1993)
